Source: patent US12077503B2, “Substituted cyclic amides and their use as herbicides” (FMC CORPORATION, priority 2015, dated 2024)

Tests used:
Type in all cases: in vivo
[1] = tested on: giant foxtail (Setaria faberii); test: Test A postemergence; conditions: Setaria faberi, post-emergence, 240 h, postemergence, read-out: Foxtail, Giant plant response rating
In short: (§1)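 In a loam soil and sand blend, planted seeds got a preemergence directed soil spray, and young plants at the one- to two-leaf stage, 2–10 cm high, got a postemergence application; ~10 d greenhouse hold; injury rated visually, 0 = none, 100 = complete control.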

[2] = tested on: ragweed (common ragweed, Ambrosia elatior); test: Test A postemergence; conditions: Ambrosia artemisiifolia, post-emergence, 240 h, postemergence, read-out: Ragweed plant response rating
In short: as §1

[3] = tested on: wheat (Triticum aestivum); test: Test A postemergence; conditions: Triticum aestivum, post-emergence, 240 h, postemergence, read-out: Wheat plant response rating
In short: as §1

[4] = tested on: barnyardgrass (Echinochloa crus-galli); test: Test A postemergence; conditions: Echinochloa crus-galli, post-emergence, 240 h, postemergence, read-out: Barnyardgrass plant response rating
In short: as §1

[5] = tested on: Galium (catchweed bedstraw, Galium aparine); test: Test A postemergence; conditions: Galium, post-emergence, 240 h, postemergence, read-out: Galium plant response rating
In short: as §1

[6] = tested on: blackgrass (Alopecurus myosuroides); test: Test A postemergence; conditions: Alopecurus myosuroides, post-emergence, 240 h, postemergence, read-out: Blackgrass plant response rating
In short: as §1

[7] = tested on: ryegrass, Italian (Italian ryegrass, Lolium multiflorum); test: Test A postemergence; conditions: Lolium multiflorum, post-emergence, 240 h, postemergence, read-out: Ryegrass, Italian plant response rating
In short: as §1

Kochia (Kochia scoparia) [8] = test: Test A postemergence; conditions: Bassia scoparia, post-emergence, 240 h, postemergence, read-out: Kochia plant response rating
In short: as §1

corn (Zea mays) = test: Test A postemergence; conditions: Zea mays, post-emergence, 240 h, postemergence, read-out: Corn plant response rating
In short: as §1

[9] = tested on: giant foxtail (Setaria faberii); test: Test A preemergence; conditions: Setaria faberi, pre-emergence, 240 h, preemergence, 0 to 100 scale where 0 is no effect and 100 is complete control, read-out: Foxtail, Giant plant response rating
In short: as §1

[10] = tested on: ragweed (common ragweed, Ambrosia elatior); test: Test A preemergence; conditions: Ambrosia artemisiifolia, pre-emergence, 240 h, preemergence, 0 to 100 scale where 0 is no effect and 100 is complete control, read-out: Ragweed plant response rating
In short: as §1

[11] = tested on: pigweed (Amaranthus retroflexus); test: Test A preemergence; conditions: Amaranthus retroflexus, pre-emergence, 240 h, preemergence, 0 to 100 scale where 0 is no effect and 100 is complete control, read-out: Pigweed plant response rating
[12] = tested on: barnyardgrass (Echinochloa crus-galli); test: Test A preemergence; conditions: Echinochloa crus-galli, pre-emergence, 240 h, preemergence, 0 to 100 scale where 0 is no effect and 100 is complete control, read-out: Barnyardgrass plant response rating
In short: as §1

[13] = tested on: ryegrass, Italian (Italian ryegrass, Lolium multiflorum); test: Test A preemergence; conditions: Lolium multiflorum, pre-emergence, 240 h, preemergence, 0 to 100 scale where 0 is no effect and 100 is complete control, read-out: Ryegrass, Italian plant response rating
In short: as §1

Kochia (Kochia scoparia) [14] = test: Test A preemergence; conditions: Bassia scoparia, pre-emergence, 240 h, preemergence, 0 to 100 scale where 0 is no effect and 100 is complete control, read-out: Kochia plant response rating
In short: as §1

[15] = 125 g ai/ha, visual injury on 0 to 100 scale (0 no effect, 100 complete control), approx. 10 d
[16] = 500 g ai/ha, 0 to 100 scale, 0 is no effect, 100 is complete control

In the case of O=C1NC[C@H](c2ccc(F)c(OC(F)(F)C(F)(F)Br)c2)[C@H]1C(=O)Nc1ccccc1F [Compound 1134], the pest or weed control at 125 g/ha [1, 15] is reported as 30%, the pest or weed control at 500 g/ha [1, 16] is reported as 80% and the pest or weed control at 125 g/ha [2, 15] is reported as 0%. For the same molecule, the pest or weed control at 500 g/ha [2, 16] was 30%, the plant injury at 125 g/ha [3, 15] was 0% and the plant injury at 500 g/ha [3, 16] was 20%. It also gave a pest or weed control at 125 g/ha [4, 15] of 60%, a pest or weed control at 500 g/ha [4, 16] of 80% and a pest or weed control at 125 g/ha [5, 15] of 20%. For the same molecule, the pest or weed control at 500 g/ha [5, 16] was 70%, the pest or weed control at 125 g/ha [6, 15] was 20% and the pest or weed control at 500 g/ha [6, 16] was 50%. For the same molecule, the pest or weed control at 125 g/ha [7, 15] was 20%, the pest or weed control at 500 g/ha [7, 16] was 20% and the pest or weed control at 125 g/ha (Kochia (Kochia scoparia) [8]; [15]) was 0%. The pest or weed control at 500 g/ha (Kochia (Kochia scoparia) [8]; [16]) was 30%, the plant injury at 125 g/ha (corn (Zea mays); [15]) was 20% and the plant injury at 500 g/ha (corn (Zea mays); [16]) was 20%. For the same molecule, the pest or weed control at 125 g/ha ([9]; 125 g ai/ha, approx. 10 d) was 70%, the pest or weed control at 500 g/ha ([9]; 500 g ai/ha) was 90% and the pest or weed control at 125 g/ha ([10]; 125 g ai/ha, approx. 10 d) was 0%. For the same molecule, the pest or weed control at 500 g/ha ([10]; 500 g ai/ha) was 70%, the pest or weed control at 125 g/ha ([11]; 125 g ai/ha, approx. 10 d) was 0% and the pest or weed control at 500 g/ha ([11]; 500 g ai/ha) was 30%. It also gave a pest or weed control at 125 g/ha ([12]; 125 g ai/ha, approx. 10 d) of 30%, a pest or weed control at 500 g/ha ([12]; 500 g ai/ha) of 80% and a pest or weed control at 125 g/ha ([13]; 125 g ai/ha, approx. 10 d) of 0%. It also gave a pest or weed control at 500 g/ha ([13]; 500 g ai/ha) of 40%, a pest or weed control at 125 g/ha (Kochia (Kochia scoparia) [14]; 125 g ai/ha, approx. 10 d) of 50% and a pest or weed control at 500 g/ha (Kochia (Kochia scoparia) [14]; 500 g ai/ha) of 60%.
